From a melting point compilation (Tetko et al.; mined from patent text by program, amines drawn as free bases though some values may be those of a salt)

Structure (SMILES) | melting point
OCc1ccc(OCc2ccccc2)c(F)c1 | 56 to 57 °C
CN(C)Cc1cc([N+](=O)[O-])cc2c(Nc3cccc(Br)c3)c(C#N)cnc12 | 223 to 226 °C
O=C(COc1cc(-c2ccc(Cl)cc2)nc2ccccc12)N1CCSCC1 | 117 °C
CC(C)(C)[N+]([O-])=Cc1c(O)cc(O)cc1O | 190 °C
CN(C)C=Nc1ncc2cc(-c3c(Cl)cccc3Cl)c(N=CN(C)C)nc2n1 | 269 to 272 °C
COc1ccccc1NC(=O)Nc1nc(Nc2ccc3ccccc3c2)nc(N(CCC(=O)O)Cc2ccc(Cl)c(Cl)c2)n1 | 115 to 120 °C
CN(C(N)=O)C1CCCc2sccc21 (stereo not drawn) | 152 to 154 °C
CN(C)c1ccc([N+](=O)[O-])c(C#N)c1 | 174 to 175 °C
CN1C(=O)C2(C(=O)N(Cc3ccccn3)c3ccccc32)c2cc3c(cc21)OCCO3 (stereo not drawn) | 87 to 89 °C
CC(C)Cn1c(CCCCNC(=O)N2CCOCC2)nc2c(N)nc3ccccc3c21 | 97 to 100 °C
C[C@H](O)C(=O)Nc1c(C(=O)c2ccccc2)[nH]c2cc(Cl)ccc12 | 185 to 190 °C
NC[C@H]1CNc2cccc(-c3ccccc3Cl)c2O1 | 135 °C
Cc1ccc2cccc3c2c1N(Cc1ccccc1)C3=NCCCn1ccnc1 | 107 to 109 °C
Nc1nonc1-c1nc2ccccc2n1CC(=NO)c1ccc(Br)cc1 | 198 to 201 °C
CC1(C(=O)Cc2ccc(Cl)cc2[N+](=O)[O-])CC=CS1 (stereo not drawn) | 142 to 143 °C
NNCc1ccccc1S(=O)(=O)O | 257 to 262 °C
Cc1nc(-c2ccc(OCCCc3ccccc3)cc2)no1 | 78.5 to 79 °C
COc1cc2cnc3c(c2cc1OC)Cc1c-3cc2c(c1CN(C)C)OCO2 | 205 to 207 °C
N#CC1CC(c2c(F)cccc2F)=NC1c1ccc(-c2ccc(OC(F)(F)F)cc2)cc1 (stereo not drawn) | 145 °C
CC(O)c1cc2cc(OCC(=O)O)c(Cl)c(Cl)c2s1 (stereo not drawn) | 173 to 175 °C
Clc1cccc(N2CCN(CCCCOc3ccc4scnc4c3)CC2)c1Cl | 93 to 94.5 °C
CC1CCCN1CCCN1C(=C(C#N)C#N)N(CCCN2CCCC2C)c2ccccc21 (stereo not drawn) | 83 to 85 °C
C=C(C)COC1CC2C3CCC4=CC(=O)CCC4(C)C3(F)C(O)CC2(C)C1(O)C(=O)CO (stereo not drawn) | 213 to 215 °C
Cc1cnc2n(c1=O)C(C)CCC2=NNc1ccccc1 (stereo not drawn) | 165 to 166 °C
COc1ccc(OC)c2c(Nc3ccc4cn[nH]c4c3)c(C#N)cnc12 | 302 to 305 °C
CCCCCCCCCCCCCCCCCCNC(=O)OCC(CNS(=O)(=O)CCCI)COC (stereo not drawn) | 69 to 70 °C
CCOC(=O)c1nsc(-c2ccccc2)n1 | 32 to 35 °C

Structure (SMILES) | melting point
O=c1c2ccc(OCc3ccccc3)cc2[nH]c2c([N+](=O)[O-])ccc(Cl)c12 | 198 to 202 °C
CCOC(=O)c1cn(CCC(C)C)c2nn(C)cc2c1=O | 105 to 106 °C
Oc1ccc(-c2nnc(-c3ccc(Oc4ccccc4)cc3)o2)cc1 | 204 to 206 °C
Cc1c(C)c(NCc2ccccc2)c2c(c1C)C(=O)C(C)(C)O2 | 108 to 109 °C
O=C1NC(NCC2CC2)=N/C1=C\c1c[nH]c2ncc(N3CCOCC3)cc12 | 331 °C
CCCCCCCCCCCCCCC(=O)C(=O)NCCCC(=O)OCC | 63 to 64 °C
O=C1Nc2ccccc2Sc2ccccc21 | 258 to 259 °C
COC(=O)Nc1cn2cc(S(=O)c3ccccc3)ccc2n1 (stereo not drawn) | 247 to 248 °C
CCN1CCN(C(=O)NC(C(=O)NC2C(=O)N(OCc3ccccc3)C2C)c2ccccc2)C(=O)C1=O (stereo not drawn) | 100 to 105 °C
C=C(C)OC1OC(n2cc(C)c(=O)n(CC(=O)c3ccccc3)c2=O)CC1OC(=O)c1ccccc1 (stereo not drawn) | 112 to 113 °C
COC(=O)c1c(Cc2ccc(S(=O)(=O)CCO)cc2)c(=O)c2ccc(Cl)cc2n1-c1ccccc1 | 172 to 174 °C
COC(=O)C1(S(=O)(=O)N2CCC(=O)CC2)CCOCC1 | 158 to 160 °C
COc1cccc(Nc2n[nH]c(N=CN(C)C)c2C#N)c1 | 227 to 231 °C
NS(=O)(=O)c1ccc(-n2nc(CCCNC(=O)NC34CC5CC(CC(C5)C3)C4)cc2-c2ccccc2)cc1 | 139 to 144 °C
O=c1cc(C2(Br)CCCCC2)oc2c(CBr)cccc12 | 134 to 135 °C
N#Cc1ccc2c(c1)C(c1ncnc3nn(C4CCCCC4)cc13)C(=O)N2 (stereo not drawn) | > 325 °C
COc1ccc2c(c1)[C@@H](O)[C@H](CN1CCC3(CC1)C(=O)NCN3c1ccccc1)CC2 (relative stereo) | 216 to 218 °C
O=C(O)c1csc2c1OC(c1ccccc1)(C1CCCCC1)CC2=O (stereo not drawn) | 269 to 275 °C
c1ccc(CCOc2ncnc3nc[nH]c23)cc1 | 209 to 210 °C
COc1ccc(C=O)cc1-c1cccs1 | 137 to 138 °C
O=C(Nc1ccc(Cl)cn1)c1oc2ccc(C(=O)N3CCOCC3)cc2c1NC(=O)[C@H]1CC[C@H](N2CCCC2=O)CC1 | 253 to 255 °C
CCNC(=O)CCCNC(=O)CCCNC(=O)CCCNC(=O)OC(C)(C)C | 170 to 171 °C
CC(=O)Oc1cc2nc[nH]c(=O)c2cc1OC(C)=O | 235 to 237 °C
N#CC1c2ccc(Br)cc2CCC1c1ccc(F)cc1 (stereo not drawn) | 146 °C
Nc1ccc(C(=O)OCc2ccccc2)c(F)n1 | 92 to 94 °C
Cc1cc(-n2cnnc2)ccc1[N+](=O)[O-] | 208 to 210 °C

Further lines, results first:

melting point | Structure (SMILES)
235 to 236 °C | COC(=O)C=Cc1c(C(=O)OC)c2c(n1C)C(=O)C=C(OC)C2=O
300 °C | COC(=O)Nc1nc2cc(C(O)c3ccc(F)cc3)ccc2[nH]1 (stereo not drawn)
213 to 216 °C | O=C(O)Cc1ccc(-c2nc3ccccc3o2)cc1F
245 to 246 °C | COC(=O)C(C)(C)c1ccc(C(=O)Nc2cn3cc(Cl)ccc3n2)cc1
96 °C | CCC(C)c1cc(Cl)cc(Cl)c1OCC(=O)N1CCSC1=S (stereo not drawn)
180 to 182 °C | CCOC(=O)c1nc2oc(C)c(C)c2c(=O)[nH]1
54 to 58 °C | COc1ccccc1CN[C@H]1CCCN(CC=Cc2ccccc2)[C@H]1c1ccccc1 (relative stereo)
73 to 74 °C | Cc1cc(N)c([N+](=O)[O-])cc1OC(F)F
61 to 63 °C | CCCCCCCCCCCCC1=C(OC)C(=O)c2ccccc2C1=O
159 °C | CC(=NNc1ccccc1)c1ccc(O)cc1O
105 to 106 °C | Cc1nc(Cl)c(C)c(-c2c(C)c(N)c(C)c3nsnc23)n1
136 to 137 °C | O=S(=O)(c1ccccc1)N1CCN(CC(O)CCl)CC1 (stereo not drawn)
175 to 176 °C | O=C(c1cc(O)c(O)c(O)c1)c1csc(-c2ccccc2)n1
135 to 136 °C | O=C(O)c1cccc(-c2cccc3cc(Cc4cccc(F)c4)oc23)c1
155 to 158 °C | COc1cccc(C2=C(CC(C)=NO)C(=O)NCCC2)c1
92 to 93 °C | Cn1nc(N)nc1NCCSCc1cccc(CN2CCCCC2)c1
115 to 123 °C | O=c1c2c(N3CCNCC3)cc(Cl)cc2n(Cc2ccccc2)c(=O)n1Cc1ccccc1
163 to 164 °C | CC(=S)NCC1CN(c2ccc(C(=O)Oc3c(F)c(F)c(F)c(F)c3F)c(F)c2)C(=O)O1 (stereo not drawn)
35 to 37 °C | Cc1cc([N+](=O)[O-])ccc1NC1CC1
> 250 °C | O=C(O)C1=CS[C@@H]2/C(=C\c3ccc4nc5n(c4c3)CCS5)C(=O)N12
115 to 116 °C | O=C(O)CCCON1CCNC1=Nc1c(Cl)cccc1Cl
162 to 163 °C | Brc1ccc(-c2nc3cc(Br)ccc3s2)cc1
154 to 155 °C | CCCCOc1ncc(-c2ccco2)cc1-c1nc2c(CC)n(CCOC)nc2c(=O)[nH]1
132 to 135 °C | NCCc1ccc(OCCC(c2ccc(Cl)cc2)(c2ccc(Cl)cc2)c2ccc(Cl)cc2)cc1
192 to 194 °C | Nc1ccc2c(c1)CC(CC(=O)O)C2=O (stereo not drawn)

melting point | Structure (SMILES)
108 to 110 °C | COC(OC)c1cccc(C=Cc2cccc(-n3cccc3)c2)c1
124 °C | COc1ccc(C2(c3cccc(C(Cc4ccccc4)Cc4ccccc4)n3)OCCCO2)cc1OC
110 to 112 °C | CSCc1c(N)c([N+](=O)[O-])cc(F)c1F
128 to 130 °C | COc1cccc(OC)c1CN1C(=O)C2CCCN2c2ccccc21 (stereo not drawn)
157 to 159 °C | O=C(O)Cc1c(Cl)c(F)nc(F)c1Cl
106 °C | CC#CCOc1ccc(S(=O)(=O)C2(C(=O)O)CCN(Cc3ccc(F)cc3)CC2)cc1
> 280 °C | CCOC(=O)c1cnc2nc(C=CC(=O)O)c(OCC)cc2c1O
> 250 °C | CC(Nc1nc(-c2ccc([N+](=O)[O-])cc2)nc2[nH]ccc12)c1ccccc1 (stereo not drawn)
67 to 68.5 °C | COc1cc2c(c(Cl)c1Cl)CCCC2
158 to 160 °C | CC[N+]1([O-])CCC(O)(c2cc(F)cc(Cl)c2)C1 (stereo not drawn)
< 50 °C | c1cc2ccsc2cn1
146 °C | O=C(NCC1CCN(CC2(C(=O)O)CCOCC2)CC1)N1C(=O)C2(CCCC2)c2ccccc21
186 to 189 °C | NC(=S)Nc1c(Br)cccc1Br
190 to 195 °C | Nc1cccc(-c2ccc(CCN3CCC(N)CC3)cc2)n1
248 to 249 °C | Nc1cc(C(=O)O)cc(OCc2ccc(Cl)cc2)c1C(=O)c1ccccc1
196 to 197 °C | CNC(=O)C1=CC(C)(C(F)(F)F)Oc2ccc([N+](=O)[O-])cc21 (stereo not drawn)
183 to 184 °C | COC(=O)Cc1ccc[nH]c1=O
165 to 167 °C | O=C(Nc1nccs1)C(CC1CCCC1)c1ccc(-c2ccncc2)cc1 (stereo not drawn)
302 °C | C#CC(=O)N1CCN(C(=O)OC2C3=C(OCCS3)C(=O)N2c2ccc3ccc(Cl)nc3n2)CC1 (stereo not drawn)
55 to 60 °C | CC1(C)CCC(S)(CCOC(=O)CCC(=O)O)CC1
197 °C | O=C1C=C(O)C(=O)c2cc(Br)ccc21
300 °C | O=C(NC1c2ccccc2-c2[nH]c(=O)c3nccn3c21)c1ccccc1 (stereo not drawn)
93 to 94 °C | Cc1cc(Nc2nccc(-c3sc(CO)nc3C)n2)ccc1N1CCOCC1
107 °C | Cc1cc(-c2nn(C3CCCC3)c3c(F)cccc23)ccc1O
229 to 231 °C | Nc1ccc(Cl)cc1C(=O)Nc1ccc(S(=O)(=O)N2CCOCC2)cc1
